PMC10463376, “Design, synthesis, in vitro anticancer, molecular docking and SAR studies of new series of pyrrolo[2,3-d]pyrimidine derivatives” (BMC Chemistry, 2023)
Converted amounts (≈) assume the structure as drawn.

Key:
MCF7 breast cancer cells = assay: MTT assay, MCF7; settings: Homo sapiens, MCF7, 72 h; for cytotoxicity at 100 µg/mL: read-out: MTT cell proliferation mortality assay (%) MCF7; for IC50: read-out: IC50 MCF7
From the text: (§1) All of the following steps were done in a sterile Laminar flow class II biosafety cabinet (Baker, SG406INT, Sanford, ME, USA). DMEM was used as a suspension medium for breast cancer (MCF7), colorectal cancer (HCT116), prostate cancer (PC3), liver cancer (HePG2), pancreatic cancer (PACA2) and lung cancer (A549), while normal cell line (BJ1) was suspended in DMEM-F12 medium. The selected cell lines were purchased from American Type Culture Collection (ATCC). The media were supplemented with a 1% antimycotic-antibiotic mixture (10,000 µg/ml streptomycin sulfate, 25 µg/ml Amphotericin B, and 10,000 U/ml Potassium Penicillin) and 1% L-glutamine. 10 × 10^4cells/well were seeded in 96 well microtiter plates and incubated for 24 h at 37 ℃ under 5% carbon dioxide using a water-jacketed Carbon dioxide incubator (Sheldon, SCO5A, OR, USA). […] After the incubation time of 72 h, the medium was removed. Afterward, 40 µl MTT salt ([…]) was added to each well and kept for 4 h under the same conditions of 37 °C and 5% carbon dioxide. Finally, 200 μl of 10% Sodium dodecyl sulfate (SDS) in deionized water was added to each well and incubated overnight at 37 °C. The step of SDS addition was done to stop the reaction and dissolve the formed formazan crystals. The absorbance was then measured at a wavelength of 595 nm and the reference wavelength was set at 620 nm using a microplate multi-well reader (Bio-Rad Laboratories Inc., model 3356, California, USA). […] A statistical significance analysis was determined between the samples and the negative control using an independent t-test by SPSS 11 program. Dimethyl sulfoxide (DMSO) was the vehicle that dissolved our synthesized compounds and its concentration in the cells was less than 0.2%. IC50 values were calculated using the GraphPad Prism 6 program. The degree of selectivity of the synthetic compounds was expressed as SI = IC50 of a pure compound in a normal cell line/IC50 of the same pure compound in the cancer cell line, where IC50 is the concentration of the compound required to kill 50% of the cells.

A549 lung cancer cells = assay: MTT assay, A549; settings: Homo sapiens, A549, 72 h, read-out: MTT cell proliferation mortality assay (%) A549, at 100 μg/ml, 72 h
From the text: as §1

[1] = test system: HCT116 colorectal cancer cells; assay: MTT assay, HCT116; settings: Homo sapiens, HCT-116, 72 h; for cytotoxicity at 100 µg/mL: read-out: MTT cell proliferation mortality assay (%) HCT116, at 100 μg/ml, 72 h
From the text: as §1

[2] = test system: PC3 prostate cancer cells; assay: MTT assay, PC3; settings: Homo sapiens, 72 h; for cytotoxicity at 100 µg/mL: read-out: MTT cell proliferation mortality assay (%) PC3, at 100 μg/ml, 72 h
From the text: as §1

HePG2 liver cancer cells = assay: MTT assay, HePG2; settings: Homo sapiens, HepG2, 72 h; for cytotoxicity at 100 µg/mL: read-out: MTT cell proliferation mortality assay (%) HePG2
From the text: as §1

[3] = test system: PACA2 pancreatic cancer cells; assay: MTT assay, PACA2; settings: Homo sapiens, PaCa-2, 72 h; for IC50: read-out: IC50 PACA2; for cytotoxicity at 100 µg/mL: read-out: MTT cell proliferation mortality assay (%) PACA2
From the text: as §1

[4] = MTT assay, normal cell line BJ1; assay type: cell-based; settings: human, at 100 μg/ml, read-out: MTT cell proliferation mortality assay (%) BJ1
From the text: as §1

Row | Structure (SMILES) | cytotoxicity at 100 µg/mL (MCF7 breast cancer cells) [%] | cytotoxicity at 100 µg/mL (A549 lung cancer cells) [%] | cytotoxicity at 100 µg/mL [1] [%] | cytotoxicity at 100 µg/mL [2] [%] | cytotoxicity at 100 µg/mL (HePG2 liver cancer cells) [%] | IC50 [3] [µg/mL] | cytotoxicity at 100 µg/mL [3] [%] | cytotoxicity at 72 h, 100 μg/ml [4] [%] | IC50 (MCF7 breast cancer cells) [µg/mL] | IC50 (HePG2 liver cancer cells; read-out: IC50 HePG2) [µg/mL] | IC50 ([1]; read-out: IC50 HCT116) [µg/mL] | IC50 ([2]; read-out: IC50 PC3) [µg/mL]
1 | Clc1ccc(-n2c(Cl)c(-c3ccc(Br)cc3)c3c(N4CCCC4)ncnc32)c(Cl)c1 [Compound 11a, 5-(4-bromophenyl)-6-chloro-7-(2,4-dichlorophenyl)-4-(pyrrolidin-1-yl)-7H-pyrrolo[2,3-d]pyrimidine] | 65.2 ± 1 | 11.8 ± 0.6 | 44.2 ± 0.8 | 12.5 ± 1.4 | 7.2 ± 1.3 | 55.4 ± 1.4 (≈ 106 µM) | 84.3 ± 1.7 | 47.3 ± 1.3 | – | – | – | –
2 | Clc1ccc(-n2c(Cl)c(-c3ccc(Br)cc3)c3c(Cl)nc(C(Cl)(Cl)Cl)nc32)c(Cl)c1 [Compound 7, 5-(4-bromophenyl)-4,6-dichloro-7-(2,4-dichlorophenyl)-2-(trichloromethyl)-7H-pyrrolo[2,3-d]pyrimidine] | 100 | 14.2 ± 0.8 | 100 | 54.2 ± 1.6 | – | – | 100 | 100 | 16.2 ± 1.6 (≈ 26.8 µM) | – | – | –
3 | Clc1ccc(-n2c(Cl)c(-c3ccc(Br)cc3)c3c(N4CCOCC4)nc(C(Cl)(Cl)Cl)nc32)c(Cl)c1 [Compound 19, 4-(5-(4-bromophenyl)-6-chloro-7-(2,4-dichlorophenyl)-2-(trichloromethyl)-7H-pyrrolo[2,3-d]pyrimidin-4-yl)morpholine] | 62.3 ± 3.4 | 5.6 ± 0.7 | 35.9 ± 1.5 | 3.7 ± 1.1 | 100 | – | 31.2 ± 5.1 | 52.7 ± 1.4 | – | 19.4 ± 0.8 (≈ 29.6 µM) | – | –
4 | CSc1ncnc2c1c(-c1ccc(Br)cc1)c(Cl)n2-c1ccc(Cl)cc1Cl [Compound 13, 5-(4-bromophenyl)-6-chloro-7-(2,4-dichlorophenyl)-4-(methylthio)-7H-pyrrolo[2,3-d]pyrimidine] | 3.5 ± 0.6 | 42.6 ± 1.2 | 60.2 ± 1 | 32.2 ± 1.7 | 12.4 ± 1.9 | – | 58.8 ± 1.2 | 25.3 ± 0.4 | – | – | – | –
5 | COc1ccc(-c2c(Cl)n(-c3ccc(Cl)cc3Cl)c3ncnc(OC)c23)cc1OC [Compound 9b, 6-chloro-7-(2,4-dichlorophenyl)-5-(3,4-dimethoxyphenyl)-4-methoxy-7H-pyrrolo[2,3-d]pyrimidine] | 100 | – | 45.6 ± 3.2 | – | 63.8 ± 0.6 | – | 2.5 ± 0.3 | – | – | – | – | –
6 | S=c1[nH]cnc2c1c(-c1ccc(Br)cc1)c(Cl)n2-c1ccc(Cl)cc1Cl [Compound 12, 5-(4-bromophenyl)-6-chloro-7-(2,4-dichlorophenyl)-3,7-dihydro-4H-pyrrolo[2,3-d]pyrimidine-4-thione] | 100 | 71.3 ± 1.6 | 64.3 ± 1.1 | 3.1 ± 0.2 | 26.3 ± 3.4 | 59.7 ± 0.7 (≈ 123 µM) | 81.5 ± 1.2 | 100 | 11.9 ± 0.9 (≈ 24.5 µM) | – | – | –
7 | Clc1ccc(-n2c(Cl)c(-c3ccc(Br)cc3)c3c(N4CCCC4)nc(C(Cl)(Cl)Cl)nc32)c(Cl)c1 [Compound 10, 5-(4-bromophenyl)-6-chloro-7-(2,4-dichlorophenyl)-4-(pyrrolidin-1-yl)-2-(trichloromethyl)-7H-pyrrolo[2,3-d]pyrimidine] | 100 | 10.2 ± 0.5 | 100 | 100 | – | – | 100 | 100 | 61.1 ± 1.4 (≈ 95.5 µM) | – | 26.9 ± 0.6 (≈ 42 µM) | 11.6 ± 0.8 (≈ 18.1 µM)
